# Laboratory results published in ChEMBL document CHEMBL4177722, “Small molecule inhibitors of anthrax edema factor” (Bioorg Med Chem Lett, 2018).
# What was measured:
# [1] = molecular target: T1, Aurora kinase A (Homo sapiens) (UniProt O14965); test: Inhibition of human Aurora A at 10 uM by ADP-Glo kinase assay
# T1 sequence (whole entry): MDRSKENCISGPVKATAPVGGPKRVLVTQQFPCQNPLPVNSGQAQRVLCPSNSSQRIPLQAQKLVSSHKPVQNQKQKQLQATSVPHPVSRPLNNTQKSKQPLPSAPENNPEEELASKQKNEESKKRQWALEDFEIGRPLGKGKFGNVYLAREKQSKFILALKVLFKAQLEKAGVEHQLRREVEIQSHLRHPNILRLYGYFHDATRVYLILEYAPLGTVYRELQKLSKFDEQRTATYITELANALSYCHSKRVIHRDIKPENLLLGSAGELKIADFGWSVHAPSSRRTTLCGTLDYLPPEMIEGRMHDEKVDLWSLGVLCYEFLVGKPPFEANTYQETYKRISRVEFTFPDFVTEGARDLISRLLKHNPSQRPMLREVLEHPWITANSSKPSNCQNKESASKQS
# [2] = molecular target: T2, Calmodulin-sensitive adenylate cyclase (Bacillus anthracis) (UniProt P40136); test: Inactivation of Bacillus anthracis edema factor assessed as Kinact/Ki ratio in presence of CaM incubated for 10 to 240 mins by EnzChek pyrophosphate assay
# T2 sequence (whole entry): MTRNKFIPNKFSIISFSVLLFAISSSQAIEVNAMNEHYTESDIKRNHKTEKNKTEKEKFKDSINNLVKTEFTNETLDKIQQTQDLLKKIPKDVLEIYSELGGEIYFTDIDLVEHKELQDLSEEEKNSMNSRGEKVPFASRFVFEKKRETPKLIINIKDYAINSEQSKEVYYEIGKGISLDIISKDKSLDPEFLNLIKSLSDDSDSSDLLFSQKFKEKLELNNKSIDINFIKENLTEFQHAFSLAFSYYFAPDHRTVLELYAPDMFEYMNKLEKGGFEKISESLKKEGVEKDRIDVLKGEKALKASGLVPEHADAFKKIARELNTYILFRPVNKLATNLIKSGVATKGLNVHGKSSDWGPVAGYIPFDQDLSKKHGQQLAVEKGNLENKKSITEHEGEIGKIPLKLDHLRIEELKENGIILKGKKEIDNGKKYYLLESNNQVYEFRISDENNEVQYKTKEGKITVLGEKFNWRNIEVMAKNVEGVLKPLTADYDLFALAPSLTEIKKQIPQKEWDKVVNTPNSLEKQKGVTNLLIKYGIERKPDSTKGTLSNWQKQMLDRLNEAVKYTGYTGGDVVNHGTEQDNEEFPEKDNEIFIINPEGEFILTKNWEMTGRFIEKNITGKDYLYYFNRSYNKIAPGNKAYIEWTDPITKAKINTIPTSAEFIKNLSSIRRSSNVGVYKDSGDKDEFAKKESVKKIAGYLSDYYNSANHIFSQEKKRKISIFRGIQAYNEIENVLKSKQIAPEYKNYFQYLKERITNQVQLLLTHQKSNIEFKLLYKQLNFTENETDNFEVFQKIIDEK
# [3] = molecular target: Mitogen-activated protein kinase 14 (Homo sapiens) (UniProt Q16539); test: Inhibition of human p38alpha at 10 uM by ADP-Glo kinase assay
# [4] = molecular target: Death-associated protein kinase 1 (Homo sapiens) (UniProt P53355); test: Inhibition of human DAPK1 at 10 uM by ADP-Glo kinase assay
# Chain of Death-associated protein kinase 1 (Homo sapiens) (P53355 whole entry, looked up): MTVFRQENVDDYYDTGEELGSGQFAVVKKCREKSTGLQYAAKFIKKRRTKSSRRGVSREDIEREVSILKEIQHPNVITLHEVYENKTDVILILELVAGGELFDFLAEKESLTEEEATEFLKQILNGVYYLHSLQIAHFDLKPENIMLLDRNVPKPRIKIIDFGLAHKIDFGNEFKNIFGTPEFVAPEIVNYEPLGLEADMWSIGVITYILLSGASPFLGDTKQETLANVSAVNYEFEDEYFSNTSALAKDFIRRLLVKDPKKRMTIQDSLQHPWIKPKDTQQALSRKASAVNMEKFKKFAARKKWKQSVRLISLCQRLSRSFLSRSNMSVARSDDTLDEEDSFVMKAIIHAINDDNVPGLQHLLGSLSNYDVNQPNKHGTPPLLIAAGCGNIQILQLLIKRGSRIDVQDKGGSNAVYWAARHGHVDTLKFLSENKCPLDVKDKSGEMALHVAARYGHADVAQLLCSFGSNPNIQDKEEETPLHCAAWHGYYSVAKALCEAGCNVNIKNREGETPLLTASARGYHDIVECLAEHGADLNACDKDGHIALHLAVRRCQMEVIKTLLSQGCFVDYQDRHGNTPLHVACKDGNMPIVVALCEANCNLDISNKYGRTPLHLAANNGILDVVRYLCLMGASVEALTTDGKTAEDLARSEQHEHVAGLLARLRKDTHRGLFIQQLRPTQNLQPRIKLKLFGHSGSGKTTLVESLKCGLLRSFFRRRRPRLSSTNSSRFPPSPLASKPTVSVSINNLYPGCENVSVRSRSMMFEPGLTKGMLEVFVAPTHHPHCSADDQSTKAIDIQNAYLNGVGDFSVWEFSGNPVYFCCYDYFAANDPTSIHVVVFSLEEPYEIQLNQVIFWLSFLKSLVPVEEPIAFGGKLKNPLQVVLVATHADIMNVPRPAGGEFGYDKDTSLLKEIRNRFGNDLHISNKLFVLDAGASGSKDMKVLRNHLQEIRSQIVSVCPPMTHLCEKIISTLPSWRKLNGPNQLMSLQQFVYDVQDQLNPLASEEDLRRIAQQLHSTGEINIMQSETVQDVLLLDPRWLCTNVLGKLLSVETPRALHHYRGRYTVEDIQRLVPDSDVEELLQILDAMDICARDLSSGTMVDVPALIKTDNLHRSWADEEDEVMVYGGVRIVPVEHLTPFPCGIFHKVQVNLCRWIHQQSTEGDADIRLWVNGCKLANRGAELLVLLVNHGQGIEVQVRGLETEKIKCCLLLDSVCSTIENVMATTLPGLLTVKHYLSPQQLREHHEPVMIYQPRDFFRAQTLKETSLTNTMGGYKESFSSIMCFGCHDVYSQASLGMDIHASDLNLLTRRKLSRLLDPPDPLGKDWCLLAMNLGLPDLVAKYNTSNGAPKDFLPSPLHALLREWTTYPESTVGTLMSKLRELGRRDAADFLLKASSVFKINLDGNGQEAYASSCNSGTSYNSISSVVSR
# [5] = molecular target: Serine/threonine-protein kinase PAK 1 (Homo sapiens) (UniProt Q13153); test: Inhibition of human PAK1 at 10 uM by ADP-Glo kinase assay
# Chain of Serine/threonine-protein kinase PAK 1 (Homo sapiens) (Q13153 whole entry): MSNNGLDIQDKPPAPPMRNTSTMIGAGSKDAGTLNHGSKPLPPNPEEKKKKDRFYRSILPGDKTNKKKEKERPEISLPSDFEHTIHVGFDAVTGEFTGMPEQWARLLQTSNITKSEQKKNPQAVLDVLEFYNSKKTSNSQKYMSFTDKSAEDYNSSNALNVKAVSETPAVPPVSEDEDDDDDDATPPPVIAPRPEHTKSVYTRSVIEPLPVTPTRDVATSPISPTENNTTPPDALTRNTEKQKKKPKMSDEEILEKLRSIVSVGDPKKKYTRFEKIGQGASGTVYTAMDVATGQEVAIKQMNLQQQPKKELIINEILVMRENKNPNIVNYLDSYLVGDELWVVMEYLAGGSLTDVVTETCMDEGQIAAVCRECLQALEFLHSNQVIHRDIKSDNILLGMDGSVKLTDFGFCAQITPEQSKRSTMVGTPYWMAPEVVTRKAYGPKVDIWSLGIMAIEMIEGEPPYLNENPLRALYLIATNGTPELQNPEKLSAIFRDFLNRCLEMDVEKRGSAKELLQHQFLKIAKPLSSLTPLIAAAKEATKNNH
# [6] = molecular target: Casein kinase II subunit alpha (Homo sapiens) (UniProt P68400); test: Inhibition of human CK2a1 at 10 uM by ADP-Glo kinase assay
# Chain of Casein kinase II subunit alpha (Homo sapiens) (P68400 whole entry, looked up, canonical isoform): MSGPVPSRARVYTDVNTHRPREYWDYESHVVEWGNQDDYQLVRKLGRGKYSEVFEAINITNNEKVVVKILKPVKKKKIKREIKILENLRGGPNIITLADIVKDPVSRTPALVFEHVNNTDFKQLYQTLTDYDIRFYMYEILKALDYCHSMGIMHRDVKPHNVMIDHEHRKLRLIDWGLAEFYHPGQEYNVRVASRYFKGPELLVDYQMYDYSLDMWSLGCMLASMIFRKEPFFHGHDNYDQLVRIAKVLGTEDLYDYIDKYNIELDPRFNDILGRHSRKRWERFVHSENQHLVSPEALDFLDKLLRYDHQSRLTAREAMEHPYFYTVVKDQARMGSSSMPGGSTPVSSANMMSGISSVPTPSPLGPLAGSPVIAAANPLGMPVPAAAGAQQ
# [7] = molecular target: Casein kinase I isoform gamma-1 (Homo sapiens) (UniProt Q9HCP0); test: Inhibition of human CK1g1 at 10 uM by ADP-Glo kinase assay
# Chain of Casein kinase I isoform gamma-1 (Homo sapiens) (Q9HCP0 whole entry, looked up, canonical isoform): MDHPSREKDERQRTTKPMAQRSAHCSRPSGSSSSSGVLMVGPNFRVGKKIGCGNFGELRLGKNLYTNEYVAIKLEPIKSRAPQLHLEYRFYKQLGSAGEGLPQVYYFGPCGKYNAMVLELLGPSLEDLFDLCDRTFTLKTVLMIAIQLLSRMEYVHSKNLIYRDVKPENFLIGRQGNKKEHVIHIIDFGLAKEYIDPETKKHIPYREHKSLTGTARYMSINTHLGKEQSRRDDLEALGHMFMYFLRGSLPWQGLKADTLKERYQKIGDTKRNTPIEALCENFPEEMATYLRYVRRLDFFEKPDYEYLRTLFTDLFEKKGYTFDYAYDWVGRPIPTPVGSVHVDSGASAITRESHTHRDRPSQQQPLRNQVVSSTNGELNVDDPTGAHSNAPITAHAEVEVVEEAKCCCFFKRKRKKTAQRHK
# [8] = molecular target: RAC-alpha serine/threonine-protein kinase (Homo sapiens) (UniProt P31749); test: Inhibition of human AKT1 at 10 uM by ADP-Glo kinase assay
# Chain of RAC-alpha serine/threonine-protein kinase (Homo sapiens) (P31749 whole entry): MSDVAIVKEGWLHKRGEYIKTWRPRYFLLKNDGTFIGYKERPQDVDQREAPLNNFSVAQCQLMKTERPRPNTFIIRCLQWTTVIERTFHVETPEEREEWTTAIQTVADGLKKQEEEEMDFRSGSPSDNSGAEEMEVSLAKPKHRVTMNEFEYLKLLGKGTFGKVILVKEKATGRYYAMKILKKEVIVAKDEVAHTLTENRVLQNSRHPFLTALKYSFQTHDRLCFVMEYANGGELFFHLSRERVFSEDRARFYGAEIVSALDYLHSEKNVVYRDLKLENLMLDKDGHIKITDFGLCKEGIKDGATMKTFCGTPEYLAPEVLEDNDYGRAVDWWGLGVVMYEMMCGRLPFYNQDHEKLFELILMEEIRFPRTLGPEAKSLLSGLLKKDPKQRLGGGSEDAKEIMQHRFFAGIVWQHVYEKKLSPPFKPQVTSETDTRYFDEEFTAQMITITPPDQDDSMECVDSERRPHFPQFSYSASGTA
# [9] = molecular target: T3, Inhibitor of nuclear factor kappa-B kinase subunit beta (Homo sapiens) (UniProt O14920); test: Inhibition of human IKKbeta at 10 uM by ADP-Glo kinase assay
# T3 sequence (whole entry): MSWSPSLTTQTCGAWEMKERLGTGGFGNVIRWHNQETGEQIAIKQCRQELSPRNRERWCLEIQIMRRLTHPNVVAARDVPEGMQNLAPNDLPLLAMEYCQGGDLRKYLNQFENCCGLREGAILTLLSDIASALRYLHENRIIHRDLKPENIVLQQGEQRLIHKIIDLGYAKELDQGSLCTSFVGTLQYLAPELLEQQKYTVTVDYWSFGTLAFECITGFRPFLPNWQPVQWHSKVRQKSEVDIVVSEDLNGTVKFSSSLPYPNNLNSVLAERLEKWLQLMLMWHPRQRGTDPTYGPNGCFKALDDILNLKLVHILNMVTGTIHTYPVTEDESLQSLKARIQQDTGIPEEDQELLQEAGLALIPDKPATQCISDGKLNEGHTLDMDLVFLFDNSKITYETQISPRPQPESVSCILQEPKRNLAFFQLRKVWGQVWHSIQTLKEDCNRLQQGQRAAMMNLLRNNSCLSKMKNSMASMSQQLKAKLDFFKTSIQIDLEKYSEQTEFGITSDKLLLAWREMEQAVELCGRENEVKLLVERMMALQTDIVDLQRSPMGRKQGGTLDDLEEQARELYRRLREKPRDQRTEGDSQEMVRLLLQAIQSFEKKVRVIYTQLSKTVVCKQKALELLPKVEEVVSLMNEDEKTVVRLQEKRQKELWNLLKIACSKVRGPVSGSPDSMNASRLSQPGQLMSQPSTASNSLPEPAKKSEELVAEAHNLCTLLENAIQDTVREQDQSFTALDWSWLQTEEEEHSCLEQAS
# [10] = molecular target: T2, Calmodulin-sensitive adenylate cyclase (Bacillus anthracis); test: Inactivation of Bacillus anthracis edema factor assessed as Kinact/Ki ratio in presence of CaM incubated for 10 to 240 mins by EnzChek pyrophosphate assay relative to FSBA
# [11] = molecular target: Casein kinase I isoform alpha (Homo sapiens) (UniProt P48729); test: Inhibition of human CK1a1 at 10 uM by ADP-Glo kinase assay
# Chain of Casein kinase I isoform alpha (Homo sapiens) (P48729 2-337 limits assumed): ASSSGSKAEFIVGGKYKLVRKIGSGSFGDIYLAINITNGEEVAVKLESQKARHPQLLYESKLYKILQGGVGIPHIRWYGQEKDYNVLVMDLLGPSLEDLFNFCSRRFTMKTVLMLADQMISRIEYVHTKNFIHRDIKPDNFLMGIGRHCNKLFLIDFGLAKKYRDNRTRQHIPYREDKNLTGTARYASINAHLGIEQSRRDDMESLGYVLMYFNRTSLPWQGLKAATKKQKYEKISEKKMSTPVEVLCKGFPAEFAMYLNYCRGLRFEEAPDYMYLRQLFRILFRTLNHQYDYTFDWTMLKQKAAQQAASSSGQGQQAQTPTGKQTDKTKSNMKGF
# [12] = molecular target: Misshapen-like kinase 1 (Homo sapiens) (UniProt Q8N4C8); test: Inhibition of human MINK at 10 uM by ADP-Glo kinase assay
# Chain of Misshapen-like kinase 1 (Homo sapiens) (Q8N4C8 whole entry, looked up): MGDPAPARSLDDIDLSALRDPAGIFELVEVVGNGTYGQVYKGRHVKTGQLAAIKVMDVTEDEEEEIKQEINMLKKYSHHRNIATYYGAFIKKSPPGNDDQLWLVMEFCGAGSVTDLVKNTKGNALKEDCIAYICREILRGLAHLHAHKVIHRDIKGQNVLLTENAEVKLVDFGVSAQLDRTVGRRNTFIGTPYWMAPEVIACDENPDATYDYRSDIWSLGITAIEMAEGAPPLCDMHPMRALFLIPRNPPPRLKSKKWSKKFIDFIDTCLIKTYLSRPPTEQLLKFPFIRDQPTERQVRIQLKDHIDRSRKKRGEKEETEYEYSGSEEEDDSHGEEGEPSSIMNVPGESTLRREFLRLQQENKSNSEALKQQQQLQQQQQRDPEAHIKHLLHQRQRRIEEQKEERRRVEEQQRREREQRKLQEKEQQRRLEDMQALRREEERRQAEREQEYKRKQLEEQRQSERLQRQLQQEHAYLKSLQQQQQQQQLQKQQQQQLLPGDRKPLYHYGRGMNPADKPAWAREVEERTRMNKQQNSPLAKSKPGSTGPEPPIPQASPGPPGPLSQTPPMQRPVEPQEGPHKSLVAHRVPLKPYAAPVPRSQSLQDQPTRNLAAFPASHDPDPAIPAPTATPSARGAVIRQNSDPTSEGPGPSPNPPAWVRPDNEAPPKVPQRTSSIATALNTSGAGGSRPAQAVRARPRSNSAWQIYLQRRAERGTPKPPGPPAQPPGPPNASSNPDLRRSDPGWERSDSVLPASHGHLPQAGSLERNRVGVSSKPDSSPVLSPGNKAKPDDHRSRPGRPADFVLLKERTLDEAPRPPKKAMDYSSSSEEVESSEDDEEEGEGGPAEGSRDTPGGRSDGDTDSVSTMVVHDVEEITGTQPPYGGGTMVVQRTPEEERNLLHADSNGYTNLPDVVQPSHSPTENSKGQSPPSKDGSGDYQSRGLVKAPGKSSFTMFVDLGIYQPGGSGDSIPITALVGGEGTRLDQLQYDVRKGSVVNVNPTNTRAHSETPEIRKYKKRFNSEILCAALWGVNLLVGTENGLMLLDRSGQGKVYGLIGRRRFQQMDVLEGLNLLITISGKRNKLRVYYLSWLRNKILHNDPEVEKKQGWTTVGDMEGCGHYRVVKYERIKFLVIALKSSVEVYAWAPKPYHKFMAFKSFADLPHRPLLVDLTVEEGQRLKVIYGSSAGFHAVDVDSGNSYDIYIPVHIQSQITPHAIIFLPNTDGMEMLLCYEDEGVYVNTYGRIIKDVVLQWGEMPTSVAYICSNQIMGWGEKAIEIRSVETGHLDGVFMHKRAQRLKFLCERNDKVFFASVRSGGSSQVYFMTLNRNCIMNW
# [13] = molecular target: T4, Calmodulin-sensitive adenylate cyclase (Bacillus anthracis, UniProt P40136); test: Inactivation of Bacillus anthracis edema factor in presence of CaM incubated for 10 to 240 mins by EnzChek pyrophosphate assay
# T4 sequence (P40136 whole entry): T2 sequence (whole entry)
# [14] = Cytotoxicity against mouse RAW264.7 cells assessed a reduction in cell viability incubated for 24 hrs in presence of 10% FBS by MTT assay; assay type: cell-based; details: RAW264.7 cells
# [15] = molecular target: T2, Calmodulin-sensitive adenylate cyclase (Bacillus anthracis); test: Inactivation of Bacillus anthracis edema factor assessed as inactivation rate constant in presence of CaM incubated for 10 to 240 mins by EnzChek pyrophosphate assay
Structure (SMILES),inhibition [1] [%],Ratio [2],inhibition [3] [%],inhibition [4] [%],inhibition [5] [%],inhibition [6] [%],inhibition [7] [%],inhibition [8] [%],inhibition [9] [%],Ratio [10],inhibition [11] [%],inhibition [12] [%],Ki [13] [nM],CC50 at 24 h [14] [µM],Kinact [15] [min⁻¹]
Cc1nc(N)c2ccn(C3CCN(C(=O)c4ccc(S(=O)(=O)F)cc4)CC3)c2n1,47,3140,2,13,0,16,16,24,0,234,0,17,700,> 100,0.129
Nc1ncnc2c1ccn2C1CCN(C(=O)c2ccc(S(=O)(=O)F)cc2)CC1,39,14200,6,4,0,9,23,20,0,1050,0,5,300,> 100,0.282
